Source: ChEMBL document CHEMBL1201862, “PubChem BioAssay data set” (2004)
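Protocol summary: plate cells (96-well), add compound at 5 concentrations, incubate 48 h, interpolate endpoints linearly. Here, GI50 denotes the concentration required for 50% inhibition of growth.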 Activity calls are given as the source filed them. Rule as the data show it: active = GI50 up to about 1.1 µM and inactive = higher.

Experiments:
Experiment in all cases: growth of human tumour cells (NCI), 48 h
786-0 = system: 786-0
KM12 = system: KM12
SK-MEL-2 = system: SK-MEL-2
MOLT-4 = system: MOLT-4
RPMI-8226 = system: RPMI-8226
SF-539 = system: SF-539
ACHN = system: ACHN
CAKI-1 = system: CAKI-1
NCI-H522 = system: NCI-H522
HCT-116 = system: HCT-116
COLO 205 = system: COLO 205
NCI-H23 = system: NCI-H23
SF-295 = system: SF-295
HL-60 = system: HL-60
HOP-92 = system: HOP-92
M14 = system: M14
SK-OV-3 = system: SK-OV-3

Measured: GI50

CCC1CCC2CCCC(C)N12 (stereo not drawn)
inactive: 786-0 > 100 µM | KM12 > 100 µM | SK-MEL-2 > 100 µM | MOLT-4 > 100 µM | RPMI-8226 > 100 µM | SF-539 > 100 µM | ACHN > 100 µM | CAKI-1 > 100 µM | NCI-H522 > 100 µM | HCT-116 > 100 µM | COLO 205 > 100 µM | NCI-H23 > 100 µM | SF-295 > 100 µM | HL-60 > 100 µM | HOP-92 > 100 µM | M14 > 100 µM

NCCOCn1cc(Cc2cccc(OCc3ccccc3)c2)c(=O)[nH]c1=O
inactive: 786-0 53.6 µM | KM12 > 100 µM | SK-MEL-2 > 100 µM | MOLT-4 73.8 µM | RPMI-8226 > 100 µM | SK-OV-3 > 100 µM | SF-539 > 100 µM | ACHN > 10 µM | HCT-116 86.7 µM | COLO 205 92.5 µM | NCI-H23 > 100 µM | SF-295 > 100 µM | HL-60 55.5 µM | HOP-92 > 100 µM | M14 > 100 µM

[O-][S+]1Cc2ccccc2CSS1 (stereo not drawn)
inactive: 786-0 15.7 µM | KM12 16.8 µM | MOLT-4 12.6 µM | RPMI-8226 16.3 µM | SK-OV-3 44.3 µM | SF-539 14.5 µM | ACHN 12.8 µM | CAKI-1 16.3 µM | NCI-H522 6.28 µM | HCT-116 15 µM | COLO 205 14.2 µM | NCI-H23 14.3 µM | SF-295 18.7 µM | HL-60 3.44 µM | HOP-92 15.6 µM | M14 14 µM

COC(=O)C1=CCS(=O)(=O)C1
inactive: 786-0 > 100 µM | KM12 > 100 µM | SK-MEL-2 > 100 µM | MOLT-4 > 100 µM | RPMI-8226 > 100 µM | SK-OV-3 > 100 µM | SF-539 > 100 µM | ACHN > 100 µM | CAKI-1 > 100 µM | HCT-116 > 100 µM | COLO 205 > 100 µM | NCI-H23 > 100 µM | SF-295 > 100 µM | HL-60 > 100 µM | HOP-92 > 100 µM | M14 > 100 µM

O=C1NC2(CCCC2)/C(=N\O)C12CCCC2
inactive: 786-0 > 100 µM | KM12 > 100 µM | SK-MEL-2 > 100 µM | MOLT-4 > 100 µM | SK-OV-3 > 100 µM | SF-539 > 100 µM | ACHN > 100 µM | CAKI-1 > 100 µM | NCI-H522 > 100 µM | HCT-116 > 100 µM | COLO 205 > 100 µM | NCI-H23 > 100 µM | SF-295 > 100 µM | HL-60 > 100 µM | HOP-92 > 100 µM | M14 > 100 µM

CCN(CC)CC(=O)/C=C/c1ccc(C)cc1
inactive: 786-0 17.6 µM | KM12 17.5 µM | MOLT-4 31.9 µM | RPMI-8226 34.6 µM | SK-OV-3 29.2 µM | SF-539 20.7 µM | ACHN 19.2 µM | CAKI-1 17.8 µM | HCT-116 17.5 µM | COLO 205 18.8 µM | NCI-H23 30.5 µM | SF-295 32 µM | HL-60 20.2 µM | HOP-92 30.1 µM | M14 17.4 µM

COc1ccc(C2(CN(C)C)COc3cc(OC)c(OC)cc3C2=O)cc1OC (stereo not drawn)
inactive: 786-0 > 100 µM | KM12 61.5 µM | MOLT-4 44.3 µM | RPMI-8226 23.5 µM | SK-OV-3 > 100 µM | SF-539 39.9 µM | ACHN 89.5 µM | CAKI-1 42.1 µM | NCI-H522 59.6 µM | HCT-116 16.3 µM | COLO 205 26.6 µM | NCI-H23 32.7 µM | SF-295 92.9 µM | HL-60 16.6 µM | HOP-92 79.3 µM | M14 89.3 µM

CCCCC1(C(NC(=O)c2ccccc2Cl)c2ccncc2)C(=O)N(c2ccccc2)N(c2ccccc2)C1=O (stereo not drawn)
inactive: 786-0 83.4 µM | KM12 81.3 µM | SK-MEL-2 50.9 µM | MOLT-4 11.9 µM | RPMI-8226 21.2 µM | SK-OV-3 74.1 µM | SF-539 88.1 µM | ACHN 36.6 µM | NCI-H522 31.6 µM | HCT-116 23.9 µM | COLO 205 22.6 µM | NCI-H23 44.7 µM | SF-295 55.7 µM | HL-60 17.6 µM | HOP-92 39.6 µM | M14 55.7 µM

CCCCCCCCc1cc2c(O)c(c1)Cc1cc(CCCCCCCC)cc(c1O)Cc1cc(CCCCCCCC)cc(c1O)Cc1cc(CCCCCCCC)cc(c1O)Cc1cc(CCCCCCCC)cc(c1O)Cc1cc(CCCCCCCC)cc(c1O)C2
inactive: 786-0 > 100 µM | KM12 > 100 µM | SK-MEL-2 > 100 µM | MOLT-4 > 100 µM | SK-OV-3 > 100 µM | SF-539 > 100 µM | ACHN > 100 µM | CAKI-1 > 100 µM | HCT-116 > 100 µM | COLO 205 > 100 µM | NCI-H23 > 100 µM | SF-295 > 100 µM | HL-60 > 100 µM | HOP-92 > 100 µM | M14 > 10 µM

O=C1CC[C@@H](NC(=O)Cc2ccccc2)C(=O)N1
inactive: 786-0 > 100 µM | KM12 > 100 µM | SK-MEL-2 > 100 µM | MOLT-4 > 100 µM | RPMI-8226 > 100 µM | SK-OV-3 > 100 µM | SF-539 > 100 µM | ACHN > 100 µM | CAKI-1 > 100 µM | NCI-H522 > 100 µM | HCT-116 > 100 µM | COLO 205 > 100 µM | NCI-H23 > 100 µM | SF-295 > 100 µM | HOP-92 > 100 µM | M14 > 100 µM

O=c1/c(=C/c2ccc(Cl)cc2Cl)sc2nc3ccccc3n12
inactive: 786-0 > 100 µM | KM12 > 100 µM | SK-MEL-2 > 100 µM | MOLT-4 > 100 µM | SK-OV-3 > 100 µM | SF-539 > 100 µM | ACHN > 100 µM | CAKI-1 > 100 µM | NCI-H522 > 100 µM | HCT-116 71.9 µM | COLO 205 > 100 µM | NCI-H23 > 100 µM | SF-295 > 100 µM | HL-60 > 100 µM | HOP-92 > 100 µM | M14 > 100 µM

COC1=CC(=O)C2C(C1=O)C(c1ccccc1)[C@H]2C (stereo partly drawn)
inactive: 786-0 > 100 µM | KM12 > 100 µM | SK-MEL-2 > 100 µM | MOLT-4 > 10 µM | RPMI-8226 35.9 µM | SK-OV-3 > 100 µM | SF-539 > 100 µM | ACHN 25.5 µM | COLO 205 > 100 µM | NCI-H23 > 100 µM | SF-295 > 100 µM | HL-60 38.9 µM | HOP-92 25.7 µM | M14 > 100 µM

O=C1Sc2ccccc2C(=O)N2CSCC12 (stereo not drawn)
inactive: 786-0 > 100 µM | KM12 > 100 µM | SK-MEL-2 > 100 µM | MOLT-4 > 100 µM | RPMI-8226 > 100 µM | SK-OV-3 > 100 µM | SF-539 > 100 µM | ACHN > 100 µM | NCI-H522 > 100 µM | HCT-116 > 100 µM | COLO 205 > 100 µM | NCI-H23 > 100 µM | SF-295 > 100 µM | HL-60 > 100 µM | HOP-92 > 100 µM | M14 > 100 µM
